{"source": "paper PMC6627609", "about": "“Targeting Quorum Sensing: High-Throughput Screening to Identify Novel LsrK Inhibitors” (International Journal of Molecular Sciences, 2019)", "note": "Where a name gives a salt, the structure may show the parent alone."}
{"target": "LsrK (Salmonella typhimurium, UniProt Q8ZKQ6)", "sequence (Q8ZKQ6 whole entry)": "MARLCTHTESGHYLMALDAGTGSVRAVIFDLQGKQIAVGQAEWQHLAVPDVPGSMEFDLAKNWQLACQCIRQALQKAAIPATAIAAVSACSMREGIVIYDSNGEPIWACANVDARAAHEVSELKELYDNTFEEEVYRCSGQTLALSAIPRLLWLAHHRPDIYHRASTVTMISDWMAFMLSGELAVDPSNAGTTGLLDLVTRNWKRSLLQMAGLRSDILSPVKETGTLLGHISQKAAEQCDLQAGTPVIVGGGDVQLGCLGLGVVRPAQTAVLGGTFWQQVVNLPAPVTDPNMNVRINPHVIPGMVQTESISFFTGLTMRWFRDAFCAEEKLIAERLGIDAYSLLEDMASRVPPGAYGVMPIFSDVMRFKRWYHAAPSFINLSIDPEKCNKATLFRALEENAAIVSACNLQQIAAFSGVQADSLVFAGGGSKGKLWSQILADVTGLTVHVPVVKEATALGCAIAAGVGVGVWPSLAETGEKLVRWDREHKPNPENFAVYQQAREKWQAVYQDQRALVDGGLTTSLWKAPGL", "assay": "biochemical", "type": "biochemical, S. typhimurium", "units": {"inhibition at 50 µM": "%", "IC50": "µM"}}
{"compound": "Nc1ncnc2c1ncn2[C@@H]1O[C@H](CO)[C@@H](O)[C@@H]1O", "note": "[VIDARABINE]", "inhibition at 50 µM": 0}
{"compound": "CC(=O)Oc1c2c(c(CC=C(C)C)c3c1C(=O)C1=C[C@@H]4CC5C(C)(C)OC(C/C=C(\\C)C(=O)O)(C4=O)[C@@]15O3)OC(C)(CCC=C(C)C)C=C2", "note": "(some centres unmarked) [ACETYL I[…]]", "IC50": 4, "inhibition at 50 µM": 141}
{"compound": "O=c1c2ccccc2oc2ccccc12", "note": "[XANTHONE]", "inhibition at 50 µM": 1}
{"compound": "COc1c2c(cc3occ(-c4ccc5c(c4)OCO5)c(=O)c13)OC(C)(C)C=C2", "note": "[METHYL ROBUSTONE]", "inhibition at 50 µM": 1}
{"compound": "NC[C@@H]1O[C@H](O[C@H]2[C@@H](O)[C@H](O[C@@H]3[C@@H](O)[C@H](N)C[C@H](N)[C@H]3O[C@H]3O[C@H](CO)[C@@H](O)[C@H](O)[C@H]3N)O[C@@H]2CO)[C@H](N)[C@@H](O)[C@@H]1O", "note": "[PAROMOMYCIN SULFATE]", "inhibition at 50 µM": 3}
{"compound": "CC(C)/C(O)=C1/C(=O)O[C@@H](c2ccoc2)[C@]2(C)C(O)[C@@H](O)[C@@]34OC5(C)OC67CC(C)(C(O)[C@]6(O)[C@@H](O)[C@]3(O5)C12)[C@H](CC(=O)O)[C@]74C", "note": "(some centres unmarked) [[…] OF BUSSEIN]", "inhibition at 50 µM": 1}
{"compound": "O=C(O)CCCCCCCCCCCC[C@@H]1C=CCC1", "note": "[CH[…]]", "inhibition at 50 µM": 156}
{"compound": "CC(=O)Nc1ccccc1", "note": "[ACETANILIDE]", "inhibition at 50 µM": 1}
{"compound": "CC(=O)OCC(=O)[C@@]12OC3(CCCC3)O[C@@H]1C[C@H]1[C@@H]3CCC4=CC(=O)C=C[C@]4(C)[C@@]3(F)[C@@H](O)C[C@@]12C", "note": "[AMCINONIDE]", "inhibition at 50 µM": 1}
{"compound": "CCOc1ccc(NC(=O)CC(C)O)cc1", "note": "(centres unmarked) [BUCETIN]", "inhibition at 50 µM": 0}
{"compound": "CCC[C@H](N[C@@H](C)C(=O)N1[C@H](C(=O)O)C[C@@H]2CCCC[C@@H]21)C(=O)OCC", "note": "[PERINDOPRIL ERBUMINE]", "inhibition at 50 µM": 15}
{"compound": "CN(C)CCN(Cc1ccccc1)c1ccccn1", "note": "[TRIPELENNAMINE CITRATE]", "inhibition at 50 µM": 2}
{"compound": "Cc1ncc([N+](=O)[O-])n1CCO", "note": "[METRONIDAZOLE]", "inhibition at 50 µM": 0}
{"compound": "COc1cc(C)c2c(c1C=O)Oc1c(c(C)c(O)c3c1C(O)OC3=O)OC2=O", "note": "(centres unmarked) [STICTIC ACID]", "IC50": 3, "inhibition at 50 µM": 119}
{"compound": "CC(NCCC(c1ccccc1)c1ccccc1)c1ccccc1", "note": "(centres unmarked) [FENDILINE HYDROCHLORIDE]", "inhibition at 50 µM": 0}
{"compound": "O=c1c2cc(O)c(O)cc2oc2cc(O)c([C@@H]3O[C@H](CO)[C@@H](O)[C@H](O)[C@H]3O)c(O)c12", "note": "[MANGIFERIN]", "inhibition at 50 µM": 14}
{"compound": "O=c1oc2cc(O)ccc2s1", "note": "[TIOXOLONE]", "inhibition at 50 µM": 88}
{"compound": "CC1COc2c(N3CCN(C)CC3)c(F)cc3c(=O)c(C(=O)O)cn1c23", "note": "(centres unmarked) [OFLOXACIN]", "inhibition at 50 µM": 4}
{"compound": "C[N+]1(C)CCCC(OC(=O)C(O)(c2ccccc2)c2ccccc2)C1", "note": "(centres unmarked) [MEPENZOLATE BROMIDE]", "inhibition at 50 µM": 3}
{"compound": "c1cncc([C@@H]2CCCCN2)c1", "note": "[ANABASINE HYDROCHLORIDE]", "inhibition at 50 µM": 2}
{"compound": "COc1ccc(/C=C/C(=O)Nc2ccccc2C(=O)O)cc1OC", "inhibition at 50 µM": 15}
{"compound": "C[C@@H]1C/C=C/C=C/C=C/C=C/[C@H](O[C@@H]2O[C@H](C)[C@@H](O)[C@H](N)[C@@H]2O)C[C@@H]2O[C@](O)(C[C@@H](O)C[C@H]3O[C@@H]3/C=C/C(=O)O1)C[C@H](O)[C@H]2C(=O)O", "note": "[NATAMYCIN]", "inhibition at 50 µM": 12}
{"compound": "CC12CCC(CC1)C(C)(C)O2", "note": "[CINEOLE]", "inhibition at 50 µM": 1}
{"compound": "Nc1ncnc2[nH]cnc12", "note": "[ADENINE]", "inhibition at 50 µM": 1}
{"compound": "O=C1NC(=O)C(=O)C(=O)N1", "note": "[ALLOXAN]", "inhibition at 50 µM": 18}
{"compound": "COc1ccc(Cc2nccc3cc(OC)c(OC)cc23)cc1OC", "note": "[PAPAVERINE HYDROCHLORIDE]", "inhibition at 50 µM": 1}
{"compound": "NC(=O)c1ncn([C@@H]2O[C@H](CO)[C@@H](O)[C@H]2O)c1N", "note": "[ACADESINE]", "inhibition at 50 µM": 0}
{"compound": "C[C@@H]1O[C@@H](O[C@H]2CC[C@]3(C=O)[C@H]4CC[C@]5(C)[C@@H](C6=CC(=O)OC6)CC[C@]5(O)[C@@H]4CC[C@]3(O)C2)[C@H](O)[C@H](O)[C@H]1O", "note": "[CONVALLATOXIN]", "inhibition at 50 µM": 1}
{"compound": "CC(=O)O[C@H]1C[C@@H](OC(C)=O)C(C)(C)[C@@H]2CC(=O)[C@]3(C)[C@H](CC[C@@]4(C)[C@H](c5ccoc5)OC(=O)[C@H]5O[C@]543)[C@@]12C", "note": "[7-DEACETOXY-7-OXOKHIVORIN]", "IC50": 3, "inhibition at 50 µM": 133}
{"compound": "CC(=O)O[C@H]1C[C@@H]2CC[C@@H]3[C@H](CC[C@@]4(C)[C@H]3C[C@H]([N+]3(C)CCCCC3)[C@@H]4OC(C)=O)[C@@]2(C)C[C@@H]1N1CCCCC1", "note": "[VECURONIUM BROMIDE]", "inhibition at 50 µM": 1}
{"compound": "Cc1ccc(C(=O)Nc2ccc(S(=O)(=O)O)c3cc(S(=O)(=O)O)cc(S(=O)(=O)O)c23)cc1NC(=O)c1cccc(NC(=O)Nc2cccc(C(=O)Nc3cc(C(=O)Nc4ccc(S(=O)(=O)O)c5cc(S(=O)(=O)O)cc(S(=O)(=O)O)c45)ccc3C)c2)c1", "note": "[SURAMIN]", "inhibition at 50 µM": 110}
{"compound": "CCCCCC(=O)O[C@]1(C(C)=O)CC[C@H]2[C@@H]3CCC4=CC(=O)CC[C@]4(C)[C@H]3CC[C@@]21C", "note": "[HYDROXYPROGESTERONE CAPROATE]", "inhibition at 50 µM": 3}
{"compound": "c1ccc(CN(CC2=NCCN2)c2ccccc2)cc1", "note": "[ANTAZOLINE PHOSPHATE]", "inhibition at 50 µM": 1}
{"compound": "COc1c2c(cc3c1OCO3)CC[N+](C)=C2", "note": "[COTARNINE CHLORIDE]", "inhibition at 50 µM": 2}
{"compound": "COC(=O)[C@]1(C)CC[C@]2(C)CC[C@]3(C)C4=CC=C5C(=CC(=O)C(O)=C5C)[C@]4(C)CC[C@@]3(C)[C@@H]2C1", "note": "[PRISTIMERIN]", "inhibition at 50 µM": 7}
